One assay deals with JAK1 (recombinant purified GST-tagged catalytic domain) (Homo sapiens (Human), UniProt P23458). In words: biochemical.
Chain of JAK1 (recombinant purified GST-tagged catalytic domain) (P23458 875-1153): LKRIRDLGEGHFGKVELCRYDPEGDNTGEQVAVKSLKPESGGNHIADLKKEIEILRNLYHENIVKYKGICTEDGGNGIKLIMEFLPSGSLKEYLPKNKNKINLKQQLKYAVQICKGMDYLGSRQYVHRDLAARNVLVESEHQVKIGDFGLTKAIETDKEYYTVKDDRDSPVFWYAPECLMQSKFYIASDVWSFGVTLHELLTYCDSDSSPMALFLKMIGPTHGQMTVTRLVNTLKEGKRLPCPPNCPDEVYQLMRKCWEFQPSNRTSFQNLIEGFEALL
For the compound `N#C[C@H]1C[C@@H](C(=O)N2CCC(F)(F)C2)CC[C@@H]1n1cc(C(N)=O)c(Nc2ccc(Cl)cc2)n1` (single isomer, unassigned) [Example 35-28, 3-[(4-chlorophenyl)amino]-1-{(1S,2S,4S or 1R,2R,4R)-2-cyano-4-[(3,3-difluoropyrrolidin-1-yl)carbonyl]cyclohexyl}-1H-pyrazole-4-carboxamide], the IC50 was found to be 0.003 µM.

Regarding `CC1(CNC(=O)[C@@H]2CC[C@@H](n3cc(C(N)=O)c(Nc4ccc(Cl)cc4)n3)[C@H](C#N)C2)COC1` (single isomer, unassigned) [Example 35-29, 3-[(4-chlorophenyl)amino]-1-[(1R,2R,4R or 1S,2S,4S)-2-cyano-4-{[(3-methyloxetan-3-yl)methyl]carbamoyl}cyclohexyl]-1H-pyrazole-4-carboxamide], the IC50 was 0.038 µM.

As to `CC1(CNC(=O)[C@H]2CC[C@H](n3cc(C(N)=O)c(Nc4ccc(Cl)cc4)n3)[C@@H](C#N)C2)COC1` (single isomer, unassigned) [Example 35-31, 3-[(4-chlorophenyl)amino]-1-[(1S,2S,4S or 1R,2R,4R)-2-cyano-4-{[(3-methyloxetan-3-yl)methyl]carbamoyl}cyclohexyl]-1H-pyrazole-4-carboxamide], the IC50 came to 0.009 µM.

`N#C[C@@H]1C[C@H](C(=O)N2CCC(F)(F)C2)CC[C@H]1n1cc(C(N)=O)c(Nc2ccc(Cl)cc2)n1` (single isomer, unassigned) [Example 35-32, 3-[(4-chlorophenyl)amino]-1-{(1R,2R,4R or 1S,2S,4S)-2-cyano-4-[(3,3-difluoropyrrolidin-1-yl)carbonyl]cyclohexyl}-1H-pyrazole-4-carboxamide]: the half-maximal inhibitory concentration (IC50) was determined as 0.005 µM.

Regarding `N#C[C@@H]1C[C@H](C(=O)N2CC(F)C2)CC[C@H]1n1cc(C(N)=O)c(Nc2ccc(Cl)cc2)n1` (single isomer, unassigned) [Example 35-33, 3-[(4-chlorophenyl)amino]-1-{(1R,2R,4R or 1S,2S,4S)-2-cyano-4-[(3-fluoroazetidin-1-yl)carbonyl]cyclohexyl}-1H-pyrazole-4-carboxamide], the IC50 is 0.009 µM.

Regarding `N#C[C@H]1C[C@@H](C(=O)N2CC(F)C2)CC[C@@H]1n1cc(C(N)=O)c(Nc2ccc(Cl)cc2)n1` (single isomer, unassigned) [Example 35-34, 3-[(4-chlorophenyl)amino]-1-{(1S,2S,4S or 1R,2R,4R)-2-cyano-4-[(3-fluoroazetidin-1-yl)carbonyl]cyclohexyl}-1H-pyrazole-4-carboxamide], the half-inhibitory concentration (IC50) was 0.003 µM.

As to `CO/N=C/c1ccc(Nc2nn([C@H]3CCCC[C@@H]3C#N)cc2C(N)=O)cc1` (single isomer, unassigned) [Example 39, 1-[(1S,2S or 1R, 2R)-2-Cyanocyclohexyl]-3-({4-[(methoxyimino)methyl]phenyl}amino)-1H-pyrazole-4-carboxamide], the IC50 worked out at 0.00045 µM.

`N#C[C@@H]1CCCCC1n1cc(C(N)=O)c(Nc2ccc(S(=O)(=O)CC(F)(F)F)cc2)n1` (single isomer, unassigned) [Example 43-7, 1-[(1S,2S or 1R,2R)-2-cyanocyclohexyl]-3-({4-[(2,2,2-trifluoroethyl)sulfonyl]phenyl}amino)-1H-pyrazole-4-carboxamide]: the IC50 came out at 0.002 µM.

Turning to `N#C[C@@H]1CCCCC1n1cc(C(N)=O)c(Nc2ccc(S(=O)(=O)CC(F)(F)F)cc2)n1` (single isomer, unassigned) [Example 43-8, 1-[(1S,2S or 1R,2R)-2-cyanocyclohexyl]-3-({4-[(2,2,2-trifluoroethyl)sulfonyl]phenyl}amino)-1H-pyrazole-4-carboxamide], the IC50 is 0.00015 µM.

As for `N#C[C@@H]1CCCC[C@H]1n1cc(C(N)=O)c(Nc2ccc3c(c2)CCS3(=O)=O)n1` (single isomer, unassigned) [Example 45-6, 1-[(1S,2R or 1R,2S)-2-cyanocyclohexyl)-3-[(1,1-dioxido-2,3-dihydro-1-benzothiophen-5-yl)amino]-1H-pyrazole-4-carboxamide], the IC50 was 0.002 µM.

For a further assay, the target named is JAK2 (recombinant purified GST-tagged catalytic domain) (Homo sapiens (Human), UniProt O60674). In words: biochemical.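 Note: biochemical JAK kinase assay with HTRF detection.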
Chain of JAK2 (recombinant purified GST-tagged catalytic domain) (O60674 849-1124): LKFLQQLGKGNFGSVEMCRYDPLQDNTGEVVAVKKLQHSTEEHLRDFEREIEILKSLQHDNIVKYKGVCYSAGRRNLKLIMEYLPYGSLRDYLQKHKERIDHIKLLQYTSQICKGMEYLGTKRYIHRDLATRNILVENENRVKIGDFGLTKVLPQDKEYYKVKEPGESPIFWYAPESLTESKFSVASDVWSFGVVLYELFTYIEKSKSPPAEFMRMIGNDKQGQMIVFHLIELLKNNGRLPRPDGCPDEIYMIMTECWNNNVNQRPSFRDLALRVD
On to `N#C[C@@H]1CCCCC1n1cc(C(N)=O)c(Nc2ccccc2)n1` (mixture of isomers) [Example 1-3, 1-[(1S,2R and 1R,2S)-2-cyanocyclohexyl]-3-(phenylamino)-1H-pyrazole-4-carboxamide], for which the IC50 was 0.138 µM.

For `N#C[C@H]1CCCC[C@@H]1n1cc(C(N)=O)c(Nc2ccccc2)n1` (racemic) [Example 2-1, 1-((1S,2S and 1R,2R)-2-cyanocyclohexyl)-3-(phenylamino)-1H-pyrazole-4-carboxamide], the half-maximal inhibitory concentration (IC50) is 0.036 µM.

`CS(=O)(=O)c1ccc(Nc2nn(C3CCCC[C@H]3C#N)cc2C(N)=O)cc1` (mixture of isomers) [Example 2-14, 1-[(1S,2R and 1R,2S)-2-cyanocyclohexyl]-3-{[4-(methylsulfonyl)phenyl]amino}-1H-pyrazole-4-carboxamide]: the IC50 came to 0.018 µM.

As to `CC(C)(C)OC(=O)NC1CC[C@H](C#N)C(n2cc(C(N)=O)c(Nc3ccc(F)cc3)n2)C1` (mixture of isomers) [Example 11-3, tert-butyl [(1R,3S,4S and 1S,3R,4R) or (1S,3S,4S and 1R,3R,4R)-3-{4-carbamoyl-3-[(4-fluorophenyl)amino]-1H-pyrazol-1-yl}-4-cyanocyclohexyl]carbamate], the IC50 was 0.049 µM.

With `CC(C)(C)OC(=O)NC1CC[C@@H](C#N)C(n2cc(C(N)=O)c(Nc3ccc(F)cc3)n2)C1` (mixture of isomers) [Example 11-4, tert-butyl [(3R,4S and 3S,4R)-3-{4-carbamoyl-3-[(4-fluorophenyl)amino]-1H-pyrazol-1-yl}-4-cyanocyclohexyl]carbamate], the IC50 turned out to be 0.02 µM.

In the case of `CC(C)(C)OC(=O)NC1CC[C@H](C#N)C(n2cc(C(N)=O)c(Nc3ccc(F)cc3)n2)C1` (mixture of isomers) [Example 11-5, tert-butyl [(1R,3S,4S and 1S,3R,4R) or (1S,3S,4S and 1R,3R,4R)-3-{4-carbamoyl-3-[(4-fluorophenyl)amino]-1H-pyrazol-1-yl}-4-cyanocyclohexyl]carbamate], the half-inhibitory concentration (IC50) was 0.022 µM.

Consider `CS(=O)(=O)c1ccc(Nc2nn(C3CCCC[C@@H]3C#N)cc2C(N)=O)cc1F` (mixture of isomers) [Example 17-8, 1-[(1S,2S and 1R,2R)-2-cyanocyclohexyl]-3-{[3-fluoro-4-(methylsulfonyl)phenyl]amino}-1H-pyrazole-4-carboxamide], for which the IC50 was 0.01 µM.

As to `N#C[C@H]1CCCCC1n1cc(C(N)=O)c(Nc2ccc(S(=O)(=O)C(F)F)cc2)n1` (mixture of isomers) [Example 17-9, 1-[(1S,2S and 1R,2R)-2-cyanocyclohexyl]-3-({4-[(difluoromethyl)sulfonyl]phenyl}amino)-1H-pyrazole-4-carboxamide], the IC50 was found to be 0.005 µM.

Turning to `CCS(=O)(=O)c1ccc(Nc2nn(C3CCCC[C@@H]3C#N)cc2C(N)=O)cc1` (mixture of isomers) [Example 17-10, 1-[(1S,2S and 1R,2R)-2-cyanocyclohexyl]-3-{[4-(ethylsulfonyl)phenyl]amino}-1H-pyrazole-4-carboxamide], the half-maximal inhibitory concentration (IC50) was 0.004 µM.

Regarding `N#C[C@H]1CCCC[C@@H]1n1cc(C(N)=O)c(Nc2cccnc2)n1` (racemic) [Example 17-13, 1-[(1S,2S and 1R,2R)-2-cyanocyclohexyl]-3-(pyridin-3-ylamino)-1H-pyrazole-4-carboxamide], the 50% inhibitory concentration (IC50) was 0.036 µM.

With `N#C[C@H]1CCCC[C@@H]1n1cc(C(N)=O)c(Nc2ccc(Cl)c(F)c2)n1` (racemic) [Example 17-56, 3-[(4-chloro-3-fluorophenyl)amino]-1-[(1S,2S and 1R,2R)-2-cyanocyclohexyl]-1H-pyrazole-4-carboxamide], the half-inhibitory concentration (IC50) came out at 0.037 µM.

In the case of `N#C[C@H]1CCCC[C@@H]1n1cc(C(N)=O)c(Nc2ccc(F)c(Cl)c2)n1` (racemic) [Example 17-58, 3-[(3-chloro-4-fluorophenyl)amino]-1-[(1S,2S and 1R,2R)-2-cyanocyclohexyl]-1H-pyrazole-4-carboxamide], the IC50 came out at 0.042 µM.

`N#C[C@H]1CCCC[C@@H]1n1cc(C(N)=O)c(Nc2ccc(OC(F)F)nc2)n1` (racemic) [Example 17-102, 1-[(1S,2S and 1R,2R)-2-cyanocyclohexyl]-3-{[6-(difluoromethoxy)pyridin-3-yl]amino}-1H-pyrazole-4-carboxamide]: the IC50 turned out to be 0.039 µM.

Take `CCNC1CCC(n2cc(C(N)=O)c(Nc3ccc(S(=O)(=O)C(F)(F)F)cc3)n2)[C@@H](C#N)C1` (mixture of isomers) [Example 27-5, 1-[(1S,2S and 1R,2R)-2-cyano-4-(ethylamino)cyclohexyl]-3-({4-[(trifluoromethyl)sulfonyl]phenyl}amino)-1H-pyrazole-4-carboxamide]: the IC50 amounted to 0.011 µM.

For `N#C[C@H]1CC(NC2CC2)CCC1n1cc(C(N)=O)c(Nc2ccc(S(=O)(=O)C(F)(F)F)cc2)n1` (mixture of isomers) [Example 27-10, 1-[(1S,2S and 1R,2R)-2-cyano-4-(cyclopropylamino)cyclohexyl]-3-({4-[(trifluoromethyl)sulfonyl]phenyl}amino)-1H-pyrazole-4-carboxamide], the IC50 is 0.007 µM.

Take `N#C[C@H]1C[C@@H](NCC(F)(F)F)CCC1n1cc(C(N)=O)c(Nc2ccc(S(=O)(=O)C(F)(F)F)cc2)n1` (mixture of isomers) [Example 27-11, 1-{(1S,2S,4S and 1R,2R,4R)-2-cyano-4-[(2,2,2-trifluoroethyl)amino]cyclohexyl}-3-({4-[(trifluoromethyl)sulfonyl]phenyl}amino)-1H-pyrazole-4-carboxamide]: the 50% inhibitory concentration (IC50) turned out to be 0.006 µM.

Regarding `N#C[C@H]1C[C@@H](NCC(F)F)CCC1n1cc(C(N)=O)c(Nc2ccc(S(=O)(=O)C(F)(F)F)cc2)n1` (mixture of isomers) [Example 27-14, 1-{(1S,2S,4S and 1R,2R,4R)-2-cyano-4-[(2,2-difluoroethyl)amino]cyclohexyl}-3-({4-[(trifluoromethyl)sulfonyl]phenyl)amino)-1H-pyrazole-4-carboxamide], the IC50 was 0.011 µM.

Regarding `N#C[C@H]1C[C@@H](OC(=O)Nc2ccccc2)CCC1n1cc(C(N)=O)c(Nc2ccc(F)cc2)n1` (mixture of isomers) [Example 34-1, (1S,3S,4S and 1R,3R,4R)-4-{4-Carbamoyl-3-[(4-fluorophenyl)amino]-1H-pyrazol-1-yl}-3-cyanocyclohexyl phenylcarbamate], the IC50 was found to be 0.107 µM.

Source of the values: patent US8962608B2, “Cycloalkylnitrile pyrazole carboxamides as janus kinase inhibitors” (Merck Sharp & Dohme Corp., priority 2011, dated 2015).
